Legend:
Type in all cases: in vivo
[1] = system: Alopecurus myosuroides (ALOMY); experiment: Herbicidal glasshouse test, post-emergence; conditions: post-emergence (sprayed after 8 days cultivation), 1000 g/h, evaluated after 13 days
Description: (§1) Seeds of a variety of test species are sown in standard soil in pots (Alopecurus myosuroides (ALOMY), Setaria faberi (SETFA), Echinochloa crus-galli (ECHCG), Solanum nigrum (SOLNI), Amaranthus retoflexus (AMARE), Ipomoea hederacea (IPOHE)). After cultivation for one day (pre-emergence) or after 8 days cultivation (post-emergence) under controlled conditions in a glasshouse (at 24/16° C., day/night; 14 hours light; 65% humidity), the plants are sprayed with an aqueous spray solution derived from the formulation of the technical active ingredient in acetone/water (50:50) solution containing 0.5% Tween 20 (polyoxyethelyene sorbitan monolaurate, CAS RN 9005-64-5). Compounds are applied at 1000 g/h. The test plants are then grown in a glasshouse under controlled conditions in a glasshouse (at 24/16° C., day/night; 14 hours light; 65% humidity) and watered twice daily. After 13 days for pre and post-emergence, the test is evaluated for the percentage damage caused to the plant. The biological activities are shown in the following table on a five point scale (5=80-100%; 4=60-79%; 3=40-59%; 2=20-39%; 1=0-19%).

[2] = system: Amaranthus retoflexus (AMARE); experiment: Herbicidal glasshouse test, post-emergence; conditions: post-emergence (sprayed after 8 days cultivation), 1000 g/h, evaluated after 13 days
Description: as §1

[3] = system: Echinochloa crus-galli (ECHCG); experiment: Herbicidal glasshouse test, post-emergence; conditions: post-emergence (sprayed after 8 days cultivation), 1000 g/h, evaluated after 13 days
Description: as §1

[4] = system: Ipomoea hederacea (IPOHE); experiment: Herbicidal glasshouse test, post-emergence; conditions: post-emergence (sprayed after 8 days cultivation), 1000 g/h, evaluated after 13 days
Description: as §1

[5] = system: Setaria faberi (SETFA); experiment: Herbicidal glasshouse test, post-emergence; conditions: post-emergence (sprayed after 8 days cultivation), 1000 g/h, evaluated after 13 days
Description: as §1

[6] = system: Solanum nigrum (SOLNI); experiment: Herbicidal glasshouse test, post-emergence; conditions: post-emergence (sprayed after 8 days cultivation), 1000 g/h, evaluated after 13 days
Description: as §1

[7] = system: Alopecurus myosuroides (ALOMY); experiment: Herbicidal glasshouse test, pre-emergence; conditions: pre-emergence (sprayed after cultivation for one day), 1000 g/h, evaluated after 13 days
Description: as §1

[8] = system: Amaranthus retoflexus (AMARE); experiment: Herbicidal glasshouse test, pre-emergence; conditions: pre-emergence (sprayed after cultivation for one day), 1000 g/h, evaluated after 13 days
Description: as §1

[9] = system: Echinochloa crus-galli (ECHCG); experiment: Herbicidal glasshouse test, pre-emergence; conditions: pre-emergence (sprayed after cultivation for one day), 1000 g/h, evaluated after 13 days
Description: as §1

[10] = system: Ipomoea hederacea (IPOHE); experiment: Herbicidal glasshouse test, pre-emergence; conditions: pre-emergence (sprayed after cultivation for one day), 1000 g/h, evaluated after 13 days
Description: as §1

[11] = system: Setaria faberi (SETFA); experiment: Herbicidal glasshouse test, pre-emergence; conditions: pre-emergence (sprayed after cultivation for one day), 1000 g/h, evaluated after 13 days
Description: as §1

[12] = system: Solanum nigrum (SOLNI); experiment: Herbicidal glasshouse test, pre-emergence; conditions: pre-emergence (sprayed after cultivation for one day), 1000 g/h, evaluated after 13 days
Description: as §1

Row | Compound | percentage damage caused to the plant, five point scale, POST Application ALOMY [1] | percentage damage caused to the plant, five point scale, POST Application AMARE [2] | percentage damage caused to the plant, five point scale, POST Application ECHCG [3] | percentage damage caused to the plant, five point scale, POST Application IPOHE [4] | percentage damage caused to the plant, five point scale, POST Application SETFA [5] | percentage damage caused to the plant, five point scale, POST Application SOLNI [6] | percentage damage caused to the plant, five point scale, PRE Application ALOMY [7] | percentage damage caused to the plant, five point scale, PRE Application AMARE [8] | percentage damage caused to the plant, five point scale, PRE Application ECHCG [9] | percentage damage caused to the plant, five point scale, PRE Application IPOHE [10] | percentage damage caused to the plant, five point scale, PRE Application SETFA [11] | percentage damage caused to the plant, five point scale, PRE Application SOLNI [12]
1 | CCc1ccc(-n2nc(C)cc(C(=O)Nc3nnnn3C)c2=O)cc1 [Compound 1.011] | 5 (5=80-100%) | 5 (5=80-100%) | 5 (5=80-100%) | 5 (5=80-100%) | 5 (5=80-100%) | 5 (5=80-100%) | 5 (5=80-100%) | 5 (5=80-100%) | 5 (5=80-100%) | 4 (4=60-79%) | 5 (5=80-100%) | 5 (5=80-100%)
2 | Cc1cc(C(=O)Nc2nnnn2C)c(=O)n(-c2ccc(C#N)cn2)n1 [Compound 1.022] | 5 (5=80-100%) | 5 (5=80-100%) | 5 (5=80-100%) | 4 (4=60-79%) | 5 (5=80-100%) | 5 (5=80-100%) | – | – | – | – | – | –
3 | COCCn1nc(C)cc(C(=O)Nc2nnnn2C)c1=O [Compound 1.017] | 5 (5=80-100%) | 5 (5=80-100%) | 5 (5=80-100%) | 5 (5=80-100%) | 5 (5=80-100%) | 5 (5=80-100%) | 5 (5=80-100%) | 5 (5=80-100%) | 5 (5=80-100%) | 5 (5=80-100%) | 5 (5=80-100%) | 5 (5=80-100%)
4 | Cc1cc(C(=O)Nc2nnnn2C)c(=O)n(-c2cccc(C#N)c2)n1 [Compound 1.018] | 5 (5=80-100%) | 5 (5=80-100%) | 5 (5=80-100%) | 5 (5=80-100%) | 5 (5=80-100%) | 5 (5=80-100%) | 5 (5=80-100%) | 5 (5=80-100%) | 5 (5=80-100%) | 5 (5=80-100%) | 5 (5=80-100%) | 5 (5=80-100%)
5 | Cc1cc(C(=O)Nc2nnnn2C)c(=O)n(-c2ccc(Br)cc2)n1 [Compound 1.006] | 5 (5=80-100%) | 5 (5=80-100%) | 5 (5=80-100%) | 4 (4=60-79%) | 5 (5=80-100%) | 5 (5=80-100%) | 5 (5=80-100%) | 5 (5=80-100%) | 5 (5=80-100%) | 4 (4=60-79%) | 5 (5=80-100%) | 5 (5=80-100%)
6 | Cc1cc(C(=O)Nc2nnnn2C)c(=O)n(Cc2cccc(F)c2)n1 [Compound 1.016] | 4 (4=60-79%) | 5 (5=80-100%) | 4 (4=60-79%) | 3 (3=40-59%) | 1 (1=0-19%) | 5 (5=80-100%) | 2 (2=20-39%) | 5 (5=80-100%) | 4 (4=60-79%) | 4 (4=60-79%) | 5 (5=80-100%) | 5 (5=80-100%)
7 | Cc1cc(C(=O)Nc2nnnn2C)c(=O)n(-c2ccccc2C)n1 [Compound 1.003] | 4 (4=60-79%) | 5 (5=80-100%) | 5 (5=80-100%) | 5 (5=80-100%) | 3 (3=40-59%) | 5 (5=80-100%) | 2 (2=20-39%) | 5 (5=80-100%) | 5 (5=80-100%) | 4 (4=60-79%) | 3 (3=40-59%) | 4 (4=60-79%)
